Measured values taken from ChEMBL document CHEMBL4651402, “Screening of ~5500 FDA-approved drugs and clinical candidates for anti-SARS-CoV-2 activity” (2021).

System: SARS-CoV-2
Test: microbe, parasite or virus in culture
Settings: Severe acute respiratory syndrome coronavirus 2, Vero C1008, 48 h

Row | Compound | IC50 | IC50 (read-out: pIC50 (converted))
1 | NC(=O)CN1Cc2ccccc2OC1=O [CAROXAZONE] | > 20 µM | > 20 µM
2 | OC[C@H]1O[C@@H](n2cnc3c(NC4CCCC4)ncnc32)[C@H](O)[C@@H]1O [N6-CYCLOPENTYLADENOSINE] | > 20 µM | > 20 µM
3 | O=c1oc2cc(O)ccc2c2ccc(O)cc12 | > 20 µM | > 20 µM
4 | CC[N+](C)(C)Cc1ccccc1Br [BRETYLIUM] | > 20 µM | > 20 µM
5 | COc1cc(NS(C)(=O)=O)ccc1Nc1c2ccccc2nc2ccccc12 [AMSACRINE] | > 20 µM | > 20 µM
6 | COc1ccc(-c2coc3cc(O)ccc3c2=O)cc1 [FORMONONETIN] | > 20 µM | > 20 µM
7 | CC(=O)OC1CCC2(C)C(=CCC3C2CCC2(C)C(C(C)CCCC(C)C)CCC32)C1 (stereo unspecified) | > 20 µM | > 20 µM
8 | CC12CCC3c4ccc(OS(=O)(=O)O)cc4CCC3C1CCC2O (stereo unspecified) | > 20 µM | > 20 µM
9 | NC1(c2ccc(-c3nc4ccn5c(=O)[nH]nc5c4cc3-c3ccccc3)cc2)CCC1 [MK-2206] | > 20 µM | > 20 µM
10 | C[C@@H](N)Cc1c[nH]cn1 | > 20 µM | > 20 µM
11 | CC(=O)Oc1ccccc1C(=O)Oc1ccccc1C(=O)O [DIPLOSALSALATE] | > 20 µM | > 20 µM
12 | CCCC1O[C@@H]2C[C@H]3[C@@H]4CCC5=CC(=O)C=C[C@]5(C)[C@H]4[C@@H](O)C[C@]3(C)[C@]2(C(=O)CO)O1 (stereo partly specified) [BUDESONIDE] | > 20 µM | > 20 µM
13 | CCNC(C)Cc1cccc(C(F)(F)F)c1 (stereo unspecified) [FENFLURAMINE] | > 20 µM | > 20 µM
14 | N#CC[C@H](C1CCCC1)n1cc(-c2ncnc3[nH]ccc23)cn1 [RUXOLITINIB] | > 20 µM | > 20 µM
15 | O=C(c1ccccc1)C(O)c1ccccc1 (stereo unspecified) [BENZOIN] | > 20 µM | > 20 µM
16 | CCCCC/C=C\C/C=C\C/C=C\C/C=C\CCCC(=O)NCCO [ANANDAMIDE] | > 20 µM | > 20 µM
17 | COc1cc2ncnc(Nc3cccc(Br)c3)c2cc1OC | > 20 µM | > 20 µM
18 | C/C=C/C[C@@H](C)C(=O)[C@H]1C(=O)N[C@@H](C(C)C)C(=O)N(C)CC(=O)N(C)[C@@H](CC(C)C)C(=O)N[C@@H](C(C)C)C(=O)N(C)[C@@H](CC(C)C)C(=O)N[C@@H](C)C(=O)N[C@H](C)C(=O)N(C)[C@@H](CC(C)C)C(=O)N(C)[C@@H](CC(C)C)C(=O)N(C)[C@@H](C(C)C)C(=O)N1C [VALSPODAR] | > 20 µM | > 20 µM
19 | O=C(COCCOCCOCC(=O)Nc1c(I)cc(I)c(C(=O)O)c1I)Nc1c(I)cc(I)c(C(=O)O)c1I [IOTROXIC ACID] | > 20 µM | > 20 µM

Row | Compound | IC50 | IC50 (read-out: pIC50 (converted))
20 | O=C1Cc2cc(CCN3CCN(c4nsc5ccccc45)CC3)c(Cl)cc2N1 [ZIPRASIDONE] | > 20 µM | > 20 µM
21 | CC(C)(O)c1ccn2c(-c3ccc(F)c(-c4ccc(F)cc4C#N)c3)cnc2c1F | > 20 µM | > 20 µM
22 | CC(=O)Nc1ccc(O)cc1 [ACETAMINOPHEN] | > 20 µM | > 20 µM
23 | Nc1c(CC(=O)O)cccc1C(=O)c1ccccc1 [AMFENAC] | > 20 µM | > 20 µM
24 | O=C(O)/C=C/c1c[nH]cn1 | > 20 µM | > 20 µM
25 | CC1(C)Cc2c(-c3ccccc3)c(-c3ccc(Cl)cc3)c(CC(=O)O)n2C1 [LICOFELONE] | > 20 µM | > 20 µM
26 | COc1ccc(C2CNC(=O)NC2)cc1O[C@@H]1C[C@H]2CC[C@@H]1C2 | > 20 µM | > 20 µM
27 | O=C1Nc2ccc(Cl)cc2C(c2ccccc2)=NC1O (stereo unspecified) [OXAZEPAM] | > 20 µM | > 20 µM
28 | C[C@@H]1CN(c2c(F)c(N)c3c(=O)c(C(=O)O)cn(C4CC4)c3c2F)C[C@H](C)N1 [SPARFLOXACIN] | > 20 µM | > 20 µM
29 | CN1C(=O)CC(=O)N(c2ccccc2)c2cc(Cl)ccc21 [CLOBAZAM] | > 20 µM | > 20 µM
30 | COc1cc2c(cc1Cc1cccc(Cl)c1F)c(=O)c(C(=O)O)cn2[C@@H](CO)C(C)C | > 20 µM | > 20 µM
31 | NCCC(O)C(=O)N[C@@H]1C[C@H](N)[C@@H](OC2O[C@H](CN)[C@@H](O)[C@H](O)[C@H]2N)[C@H](OC2O[C@H](CO)C(O)[C@H]2O)[C@H]1O (stereo partly specified) | > 20 µM | > 20 µM
32 | NCCCN | > 20 µM | > 20 µM
33 | CCC(CCC(C)C1CCC2C3CC=C4CC(OC(C)=O)CCC4(C)C3CCC12C)C(C)C (stereo unspecified) | > 20 µM | > 20 µM
34 | CN(C)CCC[C@@]1(c2ccc(F)cc2)OCc2cc(C#N)ccc21 [ESCITALOPRAM] | > 20 µM | > 20 µM
35 | Cc1ccc(=O)n(-c2ccccc2)c1 [PIRFENIDONE] | > 20 µM | > 20 µM
36 | C[N+](C)(C)CCCCC[N+](C)(C)C [PENTAMETHONIUM] | > 20 µM | > 20 µM
37 | COc1ccccc1OCC(O)COC(N)=O (stereo unspecified) [METHOCARBAMOL] | > 20 µM | > 20 µM
38 | CN(C)c1ccc(C(=C2C=CC(=[N+](C)C)C=C2)c2ccc(N(C)C)cc2)cc1 [GENTIAN VIOLET] | > 20 µM | > 20 µM
